Laboratory results taken from the NIST ThermoML archive (doi:10.1021/acs.jced.8b00433).

Assay: xn = mol fraction of the nth substance listed
Details: Gas, Buoyancy - hydrostatic balance with magnetic suspension - one sinker

C [methane] + O=C=O
Details	mass density [kg/m3]
313.09 K, 17999 kPa, x2 = 0.2017	188.702
313.1 K, 4001 kPa, x2 = 0.8988	75.134
313.1 K, 4996 kPa, x2 = 0.3997	58.587
313.1 K, 5996 kPa, x2 = 0.7985	114.567
313.1 K, 7003 kPa, x2 = 0.7985	142.512
313.1 K, 7006 kPa, x2 = 0.6015	110.298
313.11 K, 7997 kPa, x2 = 0.7985	174.464
313.11 K, 10000 kPa, x2 = 0.6015	177.419
313.11 K, 12001 kPa, x2 = 0.0998	102.596
313.11 K, 14997 kPa, x2 = 0.3997	217.543
313.12 K, 7992 kPa, x2 = 0.8988	206.745
313.12 K, 14996 kPa, x2 = 0.8988	624.636
313.13 K, 4001 kPa, x2 = 0.0998	30.822
313.13 K, 4002 kPa, x2 = 0.6015	56.419
313.13 K, 5003 kPa, x2 = 0.8988	100.174
313.13 K, 6004 kPa, x2 = 0.6015	90.955
313.13 K, 9996 kPa, x2 = 0.7985	256.481
313.13 K, 10003 kPa, x2 = 0.0998	83.788
313.13 K, 11005 kPa, x2 = 0.3997	149.559
313.14 K, 3998 kPa, x2 = 0.3997	45.694
313.14 K, 7995 kPa, x2 = 0.6015	130.852
313.14 K, 11000 kPa, x2 = 0.0998	93.126
313.14 K, 11001 kPa, x2 = 0.2017	110.189
313.14 K, 11001 kPa, x2 = 0.6015	202.91
313.14 K, 15004 kPa, x2 = 0.7985	485.573
313.15 K, 4004 kPa, x2 = 0.7985	68.752
313.15 K, 5996 kPa, x2 = 0.3997	72.099
313.15 K, 11997 kPa, x2 = 0.8988	506.067
313.16 K, 5003 kPa, x2 = 0.7985	90.396
313.16 K, 6996 kPa, x2 = 0.3997	86.285
313.16 K, 18004 kPa, x2 = 0.6015	375.856
313.17 K, 3002 kPa, x2 = 0.0998	22.748
313.17 K, 5002 kPa, x2 = 0.6015	73.052
313.17 K, 5997 kPa, x2 = 0.8988	128.664
313.17 K, 8998 kPa, x2 = 0.6015	153.28
313.17 K, 15002 kPa, x2 = 0.0998	130.663
313.17 K, 18004 kPa, x2 = 0.0998	157.443
313.17 K, 18005 kPa, x2 = 0.7985	560.943
313.18 K, 8998 kPa, x2 = 0.8988	265.242
313.18 K, 9004 kPa, x2 = 0.2017	87.631
313.18 K, 11998 kPa, x2 = 0.6015	229.134
313.18 K, 14996 kPa, x2 = 0.2017	155.927
313.19 K, 5002 kPa, x2 = 0.0998	39.114
313.19 K, 6000 kPa, x2 = 0.0998	47.652
313.19 K, 8998 kPa, x2 = 0.3997	116.64
313.19 K, 9995 kPa, x2 = 0.3997	132.712
313.19 K, 10993 kPa, x2 = 0.7985	305.994
313.19 K, 11992 kPa, x2 = 0.3997	166.169
313.2 K, 3998 kPa, x2 = 0.2017	35.711
313.2 K, 9001 kPa, x2 = 0.0998	74.487
313.2 K, 9003 kPa, x2 = 0.7985	212.239
313.2 K, 10990 kPa, x2 = 0.8988	432.06
313.21 K, 5000 kPa, x2 = 0.2017	45.475
313.21 K, 6999 kPa, x2 = 0.0998	56.348
313.21 K, 8000 kPa, x2 = 0.0998	65.323
313.21 K, 9999 kPa, x2 = 0.8988	344.181
313.21 K, 14995 kPa, x2 = 0.6015	308.146
313.21 K, 17995 kPa, x2 = 0.8988	683.03
313.21 K, 17997 kPa, x2 = 0.3997	264.841
313.22 K, 5999 kPa, x2 = 0.2017	55.518
313.22 K, 6997 kPa, x2 = 0.8988	163.201
313.22 K, 8000 kPa, x2 = 0.2017	76.608
313.22 K, 11998 kPa, x2 = 0.2017	121.576
313.22 K, 12000 kPa, x2 = 0.7985	357.778
313.23 K, 7005 kPa, x2 = 0.2017	65.96
313.24 K, 10003 kPa, x2 = 0.2017	98.786
313.27 K, 8000 kPa, x2 = 0.3997	101.088
333.06 K, 10002 kPa, x2 = 0.2017	88.824
333.07 K, 4003 kPa, x2 = 0.7985	62.105
333.07 K, 11999 kPa, x2 = 0.3997	144.496
333.07 K, 17998 kPa, x2 = 0.2017	166.841
333.08 K, 4997 kPa, x2 = 0.6015	65.944
333.08 K, 5002 kPa, x2 = 0.3997	53.475
333.08 K, 8999 kPa, x2 = 0.2017	79.049
333.08 K, 9003 kPa, x2 = 0.3997	103.555
333.08 K, 15000 kPa, x2 = 0.8988	456.324
333.1 K, 5000 kPa, x2 = 0.0998	36.091
333.11 K, 6004 kPa, x2 = 0.6015	81.338
333.11 K, 11001 kPa, x2 = 0.2017	98.605
333.12 K, 4001 kPa, x2 = 0.6015	51.39
333.12 K, 4003 kPa, x2 = 0.2017	33.068
333.12 K, 6995 kPa, x2 = 0.3997	77.606
333.12 K, 9995 kPa, x2 = 0.3997	116.802
333.12 K, 14999 kPa, x2 = 0.0998	116.773
333.12 K, 18006 kPa, x2 = 0.6015	310.346
333.13 K, 5006 kPa, x2 = 0.8988	88.521
333.13 K, 5996 kPa, x2 = 0.2017	50.919
333.13 K, 7000 kPa, x2 = 0.0998	51.598
333.13 K, 10993 kPa, x2 = 0.8988	274.201
333.13 K, 12000 kPa, x2 = 0.6015	189.959
333.13 K, 14996 kPa, x2 = 0.3997	186.621
333.14 K, 4996 kPa, x2 = 0.2017	41.851
333.14 K, 7998 kPa, x2 = 0.6015	114.282
333.14 K, 10995 kPa, x2 = 0.6015	169.869
333.14 K, 11002 kPa, x2 = 0.3997	130.586
333.14 K, 11997 kPa, x2 = 0.8988	319.541
333.14 K, 14998 kPa, x2 = 0.7985	360.976
333.14 K, 18001 kPa, x2 = 0.0998	140.51
333.15 K, 6001 kPa, x2 = 0.0998	43.781
333.15 K, 8994 kPa, x2 = 0.6015	131.934
333.15 K, 11999 kPa, x2 = 0.0998	92.187
333.15 K, 14994 kPa, x2 = 0.2017	138.03
333.15 K, 14999 kPa, x2 = 0.6015	251.317
333.16 K, 7002 kPa, x2 = 0.6015	97.409
333.16 K, 11003 kPa, x2 = 0.0998	83.984
333.16 K, 12001 kPa, x2 = 0.2017	108.442
333.16 K, 18000 kPa, x2 = 0.7985	447.149
333.16 K, 18001 kPa, x2 = 0.3997	227.522
333.17 K, 4004 kPa, x2 = 0.3997	41.983
333.17 K, 4007 kPa, x2 = 0.8988	67.864
333.17 K, 5002 kPa, x2 = 0.7985	80.565
333.17 K, 7997 kPa, x2 = 0.8988	164.576
333.18 K, 9007 kPa, x2 = 0.7985	170.905
333.18 K, 9999 kPa, x2 = 0.0998	75.751
333.18 K, 12003 kPa, x2 = 0.7985	260.729
333.19 K, 7001 kPa, x2 = 0.8988	136.146
333.19 K, 8000 kPa, x2 = 0.0998	59.549
333.19 K, 8996 kPa, x2 = 0.8988	196.344
333.19 K, 8999 kPa, x2 = 0.0998	67.601
333.19 K, 9999 kPa, x2 = 0.7985	198.595
333.19 K, 10001 kPa, x2 = 0.6015	150.602
333.19 K, 11002 kPa, x2 = 0.7985	228.687
333.2 K, 5991 kPa, x2 = 0.7985	100.196
333.2 K, 6008 kPa, x2 = 0.3997	65.434
333.2 K, 7994 kPa, x2 = 0.7985	145.123
333.2 K, 8002 kPa, x2 = 0.2017	69.464
333.21 K, 9996 kPa, x2 = 0.8988	232.812
333.21 K, 18000 kPa, x2 = 0.8988	552.634
333.22 K, 6999 kPa, x2 = 0.2017	60.167
333.22 K, 7005 kPa, x2 = 0.7985	121.973
333.22 K, 7995 kPa, x2 = 0.3997	90.268
333.24 K, 6001 kPa, x2 = 0.8988	110.997
353.02 K, 2999 kPa, x2 = 0.0998	19.722
353.03 K, 10001 kPa, x2 = 0.6015	135.164
353.05 K, 9004 kPa, x2 = 0.6015	119.448
353.08 K, 12003 kPa, x2 = 0.8988	250.219
353.08 K, 14998 kPa, x2 = 0.2017	125.022
353.09 K, 11999 kPa, x2 = 0.6015	167.978
353.09 K, 17992 kPa, x2 = 0.6015	269.799
353.1 K, 8995 kPa, x2 = 0.8988	165.756
353.1 K, 17997 kPa, x2 = 0.8988	437.7
353.11 K, 12000 kPa, x2 = 0.3997	129.551
353.11 K, 18006 kPa, x2 = 0.7985	362.285
353.12 K, 5997 kPa, x2 = 0.8988	99.468
353.12 K, 6004 kPa, x2 = 0.6015	74.991
353.12 K, 18000 kPa, x2 = 0.3997	201.731
353.13 K, 4000 kPa, x2 = 0.8988	61.9
353.13 K, 6004 kPa, x2 = 0.3997	60.111
353.13 K, 14997 kPa, x2 = 0.3997	165.894
353.14 K, 9003 kPa, x2 = 0.0998	62.172
353.14 K, 14999 kPa, x2 = 0.6015	219.076
353.15 K, 6003 kPa, x2 = 0.7985	90.263
353.15 K, 14995 kPa, x2 = 0.0998	106.161
353.15 K, 14999 kPa, x2 = 0.8988	346.055
353.16 K, 3001 kPa, x2 = 0.6015	35.135
353.16 K, 15004 kPa, x2 = 0.7985	288.885
353.17 K, 9004 kPa, x2 = 0.3997	93.855
353.18 K, 3996 kPa, x2 = 0.7985	56.892
353.18 K, 4002 kPa, x2 = 0.2017	30.584
353.18 K, 4004 kPa, x2 = 0.3997	38.873
353.18 K, 11994 kPa, x2 = 0.7985	214.517
353.22 K, 8998 kPa, x2 = 0.7985	147.521
353.22 K, 17999 kPa, x2 = 0.0998	127.527
353.23 K, 6000 kPa, x2 = 0.0998	40.53
353.24 K, 11994 kPa, x2 = 0.0998	84.225
353.26 K, 6007 kPa, x2 = 0.2017	46.942
353.27 K, 9000 kPa, x2 = 0.2017	72.326
353.28 K, 12001 kPa, x2 = 0.2017	98.585
353.37 K, 17994 kPa, x2 = 0.2017	150.552
